This note sets out measurements from patent US10662204B2 (PFIZER INC., priority 2018, dated 2020).

Test [1] deals with T1, GDP-loaded KRAS (1-169) G12C, C51S, C80L, C118S (Homo sapiens, UniProt P01116, C118S/C51S/C80L/G12C).
T1 construct: GDP-loaded KRAS (1-169) G12C, C51S, C80L, C118S
Nature of the test: Mass Spectrometry Reactivity Assay (MSRA): covalent adduct of compound and KRAS G12C, Percent Modification. The test is classed as binding. In short, it runs like this: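 GDP-loaded KRAS(1-169) G12C/C51S/C80L/C118S at 5 μM in 25 mM Hepes pH 7.5, 200 mM NaCl, 5% glycerol incubated at RT with compound (typically 5 or 10 μM final, 1% DMSO). Quenched in formic acid at 1-60 min; intact-protein LC-TOF MS gives % modification = modified/(modified+unmodified).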

Test [2] has as its target T2, KRAS G12C (Homo sapiens, UniProt P01116, G12C). Nature of the test: Cell Activity Assay: accumulation of GDP-bound KRAS G12C in MIAPaCa-2 cells (Raf-1 RBD capture, MSD readout). In kind it is cell-based. Also noted: endogenous in cells; host or cells: MIAPaCa-2. The following applies: 6 hours, assay limit is 30.00. The gist of the method: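 MIAPaCa-2 cells exposed 6 h at 37 °C to 3-fold compound dilutions (0.3% DMSO final), then lysed. Active GTP-KRAS captured on Raf-1 RBD-coated plates, detected with anti-pan-Ras and SULFO-TAG secondary by MSD electrochemiluminescence. Signal normalized to DMSO and maximum inhibition; IC50 from 4-parameter fit.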

Test [3] addresses T2, KRAS G12C. Nature of the test: Cell Activity Assay: IC50 in H358 cells. The test is classed as cell-based. Set-up: endogenous in cells. How it is done: Compounds presented in the present invention lead to the accumulation of the GDP bound Ras upon treatment of human cancer cell line.
The accumulation of the GDP-bound KRAS G12C in cellular environment was measured based on the principle that KRAS G12C only binds to its downstream kinase; Raf-1 (MAP Kinase Kinase Kinase), when in its active-GTP bound state. In this state, Ras binded to a domain of Raf-1 kinase referred to as the Ras Binding Domain (RBD).
Raf-1 RBD (LJIC-1988A1) was diluted to 100 ng/well in PBS and 5 μl/well was spot coated onto MSD high bind SECTOR plates (L15XB). Plates were incubated at room temperature for 1 hour on an orbital shaker. Plates were washed with PBS/0.05% Tween-20 and 50 μl/well of thawed lysate samples were added, followed by 50 μl of 1% MSD Blocker A in PBS/0.05 Tween-20 (R93BA). Plates were incubated for 1 hour on an orbital shaker and washed with PBS/0.05% Tween-20. 25 μl/well of Anti-pan-Ras Antibody (Cell Biolabs 244003) diluted 1:3000 was added in 1% MSD Blocker A solution and plates were incubated for 1 hour on an orbital shaker and washed with PBS/0.05% Tween-20. SULFO-TAG goat anti-mouse secondary antibody (MSD R32AC) was diluted 1:500 in MSD Blocker A solution and added at 25 μL/well. Plates were incubated for 1 hour on an orbital shaker and washed with PBS/0.05% Tween-20. 150 μl/well of Read Buffer T (MSD R92TC) diluted 1:3 in H2O was added and plates were read on a Meso Scale Discovery Sector Imager S600.
KRAS signal was normalized to maximum inhibition and DMSO control values, and IC50 values were generated using a 4 parameter fit of the dose response curve. The decrease in IC50 reflects that the exemplary compound lead to a higher level of accumulation of GDP-bound KRAS G12C than another exemplary compounds at specific timepoint of treatment of cancer cell line.

The structures appear in SMILES notation.

For `C=CC(=O)N1CCN(c2nc(OC[C@@H]3C[C@H](OC)CN3C)nc3c(Oc4c(Cl)c(F)cc5[nH]ncc45)nc(Cl)cc23)CC1` [Example 20G, 1-[4-(6-chloro-8-[(5-chloro-6-fluoro-1H-indazol-4-yl)oxy]-2-{[(2S,4S)-4-methoxy-1-methylpyrrolidin-2-yl]methoxy}pyrido[3,4-d]pyrimidin-4-yl)piperazin-1-yl]prop-2-en-1-one], in test [1] (5.0 μM compound, 0.017 hr), the “MSRA (% modification) 5.0 μM 0.017 hr” value was 26%. Further, the “MSRA (% modification) 10 μM 0.25 hr” value in test [1] (10 μM compound, 0.25 hr) was 79%. The IC50 was 0.08 µM in test [2] and 0.152 µM in test [3].

As for `C=CC(=O)N1CCN(c2nc(OC[C@@H]3CCCN3C)nc3c(Oc4c(Cl)c(F)cc5[nH]ncc45)nccc23)CC1` [Example 01H, 1-[4-(8-[(5-chloro-6-fluoro-1H-indazol-4-yl)oxy]-2-{[(2S)-1-methylpyrrolidin-2-yl]methoxy}pyrido[3,4-d]pyrimidin-4-yl)piperazin-1-yl]prop-2-en-1-one], the “MSRA (% modification) 5.0 μM 0.25 hr” value in test [1] (5.0 μM compound, 0.25 hr) was found to be 66%. For the same molecule, the “MSRA (% modification) 10 μM 0.25 hr” value in test [1] (10 μM compound, 0.25 hr) is listed as 81%. Moreover, the IC50 in test [2] was 0.117 µM; in test [3] it was 0.191 µM.

With `C=CC(=O)N1CCN(c2nc(OC[C@@H]3CCCN3C)nc3c(Oc4c(Cl)c(F)cc5[nH]ncc45)nc(Cl)cc23)CC1` [Example 01G, 1-[4-(6-chloro-8-[(5-chloro-6-fluoro-1H-indazol-4-yl)oxy]-2-{[(2S)-1-methylpyrrolidin-2-yl]methoxy}pyrido[3,4-d]pyrimidin-4-yl)piperazin-1-yl]prop-2-en-1-one], the “MSRA (% modification) 10 μM 0.25 hr” value in test [1] (10 μM compound, 0.25 hr) was 82%. The IC50 in test [2] came out at 0.04 µM; in test [3], 0.06 µM.

For the molecule `C=CC(=O)N1CCN(c2nc(N3CC(N(C)C)C3)nc3c(Oc4c(C)ccc5[nH]ncc45)nccc23)CC1` [Example 02B, 1-(4-{2-[3-(dimethylamino)azetidin-1-yl]-8-[(5-methyl-1H-indazol-4-yl)oxy]pyrido[3,4-d]pyrimidin-4-yl}piperazin-1-yl)prop-2-en-1-one], the “MSRA (% modification) 10 μM 0.50 hr” value in test [1] (10 μM compound, 0.50 hr) was 30%. For the same molecule, the 50% inhibitory concentration (IC50) is 7.84 µM in test [2] and 8.2 µM in test [3].

As to `C=CC(=O)N1CCN(c2nc(OC[C@@H]3CCCN3C)nc3c(Oc4c(Cl)ccc5[nH]ncc45)nc(Cl)cc23)CC1` [Example 09G, 1-[4-(6-chloro-8-[(5-chloro-1H-indazol-4-yl)oxy]-2-{[(2S)-1-methylpyrrolidin-2-yl]methoxy}pyrido[3,4-d]pyrimidin-4-yl)piperazin-1-yl]prop-2-en-1-one], the “MSRA (% modification) 10 μM 0.25 hr” value in test [1] (10 μM compound, 0.25 hr) came out at 81%. In addition, the 50% inhibitory concentration (IC50) in test [2] turned out to be 0.069 µM; in test [3], 0.123 µM.

In general, IC50 refers to the point on the concentration scale where inhibition reaches its midpoint.
